These antisense oligonucleotides have a phosphorothioate backbone; sugars and methylation of C are not fully specified.
Also: test concentration or dose not given here.

The target in the first data set is RELA. The conditions noted are these: ASO.
Consider AAAGGAGCCTCGGGCCTC, for which the remaining target (mRNA or protein) (fraction of control) turned out to be 0.37.
On the same count and under the same terms, for ACCTGGAAGCAGAGCCGC the value was 0.31; for AGAGCCGCACAGCATTCA, 0.46.
AGCCTGGTCCCGTGAAAT came in with a remaining target (mRNA or protein) (fraction of control) of 0.5.
On the same count and under the same terms, for AGCTGAGCTGCGGGAAGG the value was 0.86.
On the same count and under the same terms, next, AGGTATGCCCTGGTTCAG: 0.61; ATGAGGAAGGACAGGCGG: at least 1.
ATGCGTCGAGGTGGAGGC came in with a remaining target (mRNA or protein) (fraction of control) of 0.6.
The same measure, in the same setting: for ATGGAGGAGAAGTCTTCA the value was at least 1; for ATGGGTCCCGCACTGTCA, 0.38.
Regarding CAAAGATGGGATGAGGAA, the remaining target (mRNA or protein) (fraction of control) is at least 1.
The same measure, in the same setting: for CAATGTCCTCTTTCTGCA the value was 0.78; for CAGGTCCCGCTTCTTCAC, 0.33; for CCTGGTCCTGTGTAGCCA, 0.78.
Still for that read-out and setting: next, CGTAGTCCCCACGCTGCT: 0.29; CTCAATGATCTCCACATA: at least 1; CTCATAGAAGCCATCCCG: 0.69.
Same read-out and setting: for CTGCCGGGAAGATGAGGG the value was 0.84; for GACAGCGTTCCTTCCCCA, at least 1.
GACGAGCCATTCGCCGGA came in with a remaining target (mRNA or protein) (fraction of control) of 0.52.
For the sequence GATCTGACTCAGCAGGGC, the remaining target (mRNA or protein) (fraction of control) was determined as 0.27.
The same measure, in the same setting: next, GCACATCAGCTTGCGAAA: at least 1.
Turning to GCACTTGTAGCGGAAGCG, the remaining target (mRNA or protein) (fraction of control) is at least 1.
In the case of GCAGTCCTTTCCTACAAG, the remaining target (mRNA or protein) (fraction of control) was 0.95.
GCCGGTGAGGAGGGTCCT gave a remaining target (mRNA or protein) (fraction of control) of 0.71.
Still for that read-out and setting: for GCTCAGGGATGACGTAAA the value was 0.45; for GGATGCGCTGACTGATAG, 0.31.
As for GTCTGTGCTGTTGCCAAG, the remaining target (mRNA or protein) (fraction of control) is 0.87.
On the same count and under the same terms, for GTTGTTGGTCTGGATGCG the value was 0.63; for TAGCCATTGATCTTGATG, 0.78; for TCACACACTGGATTCCCA, 0.81.
Same read-out and setting: for TCACACAGTAGGAAGATC the value was 0.74.
As to TCACTAGGCGAGTTATAG, the remaining target (mRNA or protein) (fraction of control) is 0.53.
On the same count and under the same terms, next, TCTGGAAACTGTGGATGC: at least 1; TGCCCAGAAGGAAACACC: 0.66; TGTATCTGGCAGGTACTG: at least 1.
In turn, TGTCCTTTTACGTTTCTC displayed a remaining target (mRNA or protein) (fraction of control) of 0.74.
For the sequence TTCGGTTCACTCGGCAGA, the remaining target (mRNA or protein) (fraction of control) is at least 1.
On the same count and under the same terms, for TTCTGCACCTTGTCACAC the value was 0.37.
On the same count and under the same terms, next, TTGGTGGTATCTGTGCTC: 0.53.

In another data set the target is CTNNB1. The conditions noted are these: ASO.
In turn, AAACTGTGTAGATGGGATCT returned a remaining target (mRNA or protein) (fraction of control) of 0.57.
Still for that read-out and setting: next, AATCAGCTTGAGTAGCCATT: 0.31.
Take ACCAAGCATTTTCACCAGGG: the remaining target (mRNA or protein) (fraction of control) came out at 0.4.
On the same count and under the same terms, next, ACCAGGGTGGTGGCCACCCA: 0.48.
Sequence AGAAAATCCCTGTTCCCACT gave a remaining target (mRNA or protein) (fraction of control) of 0.32.
AGCAGACACCATCTGAGGAG had a remaining target (mRNA or protein) (fraction of control) of 0.3.
The same measure, in the same setting: for AGCCCACCAGCTAAACGCAC the value was 0.4; for AGCTTGAGTAGCCATTGTCC, 0.34.
AGGCTAGGGTTTGCTAAATT came in with a remaining target (mRNA or protein) (fraction of control) of 0.47.
On the same count and under the same terms, for AGGTCCCAGCGGTACAACGA the value was 0.21; for AGGTGCATGATTTGCGGGAC, 0.62.
The same measure, in the same setting: next, AGTAGCCATTGTCCACGCTG: 0.37; CAAAACAAGGTTCCAAATAA: 0.56; CAAATCAGCTTGAGTAGCCA: 0.49.
Still for that read-out and setting: next, CATTGTCCACGCTGGATTTT: 0.72.
Regarding CCCATAGGAAACTCAGCTTG, the remaining target (mRNA or protein) (fraction of control) stood at 0.29.
Still for that read-out and setting: for CCCCTCGCTCTCCGCTCCCG the value was 0.07; for CCTCTCAGCAACTCTACAGG, 0.24.
As to CCTCTGATAACAATTCGGTT, the remaining target (mRNA or protein) (fraction of control) came out at 0.52.
CGACCTGCGGTGGCGGCTCG: the remaining target (mRNA or protein) (fraction of control) came out at 0.36.
Still for that read-out and setting: next, CTAAAGGATGATTTACAGGT: 0.54.
The same measure, in the same setting: next, CTGGTCAGCTCAACTGAAAG: 0.41; CTGTCAGAGGAGCTGTGGCT: 0.64.
Still for that read-out and setting: for CTTGAGTAGCCATTGTCCAC the value was at least 1.
As to GCACGAACAAGCAACTGAAC, the remaining target (mRNA or protein) (fraction of control) amounted to 0.37.
On the same count and under the same terms, next, GCCATTGTCCACGCTGGATT: at least 1; GTACGCACAAGAGCCTCTAT: 0.29.
Same read-out and setting: for GTCCTGAGCAAGTTCACAGA the value was 0.37; for GTTGTATGGTATACTTCAAA, 0.69; for TAGAGTGATTATGAATTAAT, 0.7.
On the same count and under the same terms, next, TAGCAGTTTTGTCAGTTCAG: at least 1; TAGCCATTGTCCACGCTGGA: 0.23.
For the sequence TCAGCTTGAGTAGCCATTGT, the remaining target (mRNA or protein) (fraction of control) was determined as 0.31.
On the same count and under the same terms, for TCGCCACACCTTCATTCCTA the value was 0.37; for TGAGTAGCCATTGTCCACGC, 0.35.
Sequence TGTTTTCAATGGGAGAATAA yielded a remaining target (mRNA or protein) (fraction of control) of 0.63.
Still for that read-out and setting: next, TTATTGCAAGTGAGGTTAGA: 0.51.
The sequence TTCTCTTGAAGCATCGTATC came in with a remaining target (mRNA or protein) (fraction of control) of 0.2.
Regarding TTGCTGCCAGTGACTAACAG, the remaining target (mRNA or protein) (fraction of control) was 0.46.
Same read-out and setting: next, TTGTCCACGCTGGATTTTCA: 0.52.

In the next data set the target is BIRC5. The conditions noted are these: ASO.
In the case of AAAAGGAGTATCTGCCAG, the remaining target (mRNA or protein) (fraction of control) came to 0.61.
For the sequence AAAGAGAGAGAGAGAGAG, the remaining target (mRNA or protein) (fraction of control) worked out at 0.82.
Same read-out and setting: next, AAGCAGCCACTGTTACCA: 0.36; ACAGGAAGGCTGGTGGCA: 0.3; ACAGGCAGAAGCACCTCT: at least 1.
Take ACAGTTGAAACATCTAAT: the remaining target (mRNA or protein) (fraction of control) is at least 1.

In a further data set the target is GNAI3. The conditions noted are these: ASO.
Turning to ACTCCACACTGTAGTAAC, the remaining target (mRNA or protein) (fraction of control) is 0.45.
On the same count and under the same terms, for AGAGAATGATTGAAGTTT the value was 0.99; for AGCCAGAACAAGGTCATA, 0.88.
The sequence AGGTCATAATCACTGAGG came in with a remaining target (mRNA or protein) (fraction of control) of 0.75.
For ATCTCCTTGGTATCTTTT, the remaining target (mRNA or protein) (fraction of control) stood at 0.33.
Still for that read-out and setting: next, ATCTTGCTTCGCTCCACT: 0.63; ATGCAGCACCTCAACTTC: 0.4.
On the same count and under the same terms, next, ATTGTTTACATTCATCCT: at least 1; CAATAAAGTCCACATTCC: at least 1.
Same read-out and setting: for CAATCTTTAGCCGTCCCA the value was 0.49; for CATCTTGCTGAGTTGGAA, 0.34.
In turn, CATGAGACAGCAAAAGGT had a remaining target (mRNA or protein) (fraction of control) of 0.92.
As for CCACCATCTCGCCATAAC, the remaining target (mRNA or protein) (fraction of control) is 0.77.
For CCATGCTTCTCAATAAAG, the remaining target (mRNA or protein) (fraction of control) was 0.58.
Consider CTCAACACTCCACACTGT, for which the remaining target (mRNA or protein) (fraction of control) amounted to 0.9.
Still for that read-out and setting: next, CTTCTCAATAAAGTCCAC: 0.65; GACTCCTTCTTCAGCACT: 0.48; GAGTTGGAATGTAGTTAG: 0.56.
Turning to GGTATCTTTTCTTCTGTT, the remaining target (mRNA or protein) (fraction of control) worked out at 0.48.
Turning to GTCTGACTTTAGCATCTC, the remaining target (mRNA or protein) (fraction of control) came out at 0.56.
Same read-out and setting: next, GTGTTTCTACAATGCCTG: 0.37.
On the same count and under the same terms, next, TAAAGAGTGCTAAGATTC: 0.72; TAAAGTTATTCTTCTCTT: 0.88.
In turn, TAACGGACTCCTCTTTAT returned a remaining target (mRNA or protein) (fraction of control) of 0.25.
The same measure, in the same setting: next, TAATTGCTGTCACTCCCT: 0.65; TATTGGAACCTGTGTATT: 0.54.
Still for that read-out and setting: next, TCAACTTCACATCTTCCA: 0.62.
On the same count and under the same terms, for TCACTCTCGTCCGAAGAA the value was 0.41; for TGGCACAGGTGAAGTGAG, 0.29; for TGGTCTTCACTCTCGTCC, 0.21.
Sequence TTAAGAAATCCAAGTGAT displayed a remaining target (mRNA or protein) (fraction of control) of at least 1.
On the same count and under the same terms, next, TTAAGGAAGAGAATGATT: at least 1.

The values are drawn from the OligoGym collection.
